Experimental data published in US20210045385A1, “PYRIDAZINONE-SUBSTITUTED KETOXIMES AS HERBICIDES” (FMC Corporation, priority 2018, published 2021).

How the values were obtained:
Type in all cases: in vivo
[1] = tested on: Italian ryegrass (Lolium mutiflorum); experiment: Test C preemergence, visual plant response rating
Method in brief: (§1)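 Visual injury on a 0 (no effect) to 100 (complete control) scale versus untreated controls, scored approximately 10 d after treatment under greenhouse conditions. Treatments used surfactant-containing non-phytotoxic solvent formulations, sprayed onto loam–sand soil preemergence or onto one- to two-leaf plants 2–10 cm tall postemergence.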

[2] = tested on: barnyardgrass (Echinochloa crus-galli); experiment: Test C preemergence, visual plant response rating
Method in brief: as §1

[3] = tested on: foxtail, giant (giant foxtail, Setaria faberi); experiment: Test C preemergence, visual plant response rating
Method in brief: as §1

kochia (Bassia scoparia) [4] = experiment: Test C preemergence, visual plant response rating
Method in brief: as §1

[5] = tested on: pigweed (Amaranthus retroflexus); experiment: Test C preemergence, visual plant response rating
Method in brief: as §1

[6] = tested on: ragweed (common ragweed, Ambrosia artemisiifolia); experiment: Test C preemergence, visual plant response rating
Method in brief: as §1

[7] = tested on: Italian ryegrass (Lolium mutiflorum); experiment: Test C postemergence, visual plant response rating
Method in brief: as §1

[8] = tested on: barnyardgrass (Echinochloa crus-galli); experiment: Test C postemergence, visual plant response rating
Method in brief: as §1

[9] = tested on: blackgrass (Alopecurus myosuroides); experiment: Test C postemergence, visual plant response rating
Method in brief: as §1

corn (Zea mays) = experiment: Test C postemergence, visual plant response rating
Method in brief: as §1

[10] = tested on: foxtail, giant (giant foxtail, Setaria faberi); experiment: Test C postemergence, visual plant response rating
Method in brief: as §1

[11] = tested on: galium (catchweed bedstraw, Galium aparine); experiment: Test C postemergence, visual plant response rating
Method in brief: as §1

kochia (Bassia scoparia) [12] = experiment: Test C postemergence, visual plant response rating
Method in brief: as §1

[13] = tested on: pigweed (Amaranthus retroflexus); experiment: Test C postemergence, visual plant response rating
Method in brief: as §1

[14] = tested on: ragweed (common ragweed, Ambrosia artemisiifolia); experiment: Test C postemergence, visual plant response rating
Method in brief: as §1

[15] = tested on: wheat (Triticum aestivum); experiment: Test C postemergence, visual plant response rating
Method in brief: as §1

[16] = tested on: barnyardgrass (Echinochloa crus-galli); experiment: Test D flooded paddy test, visual plant response rating; conditions: 250 g ai/ha, scale 0 to 100 (0 no effect, 100 complete control), 13 to 15 d
Method in brief: (§2)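 Visual injury scores, 0 (no effect) to 100 (complete control), were assigned after 13 to 15 d in the greenhouse by comparison with controls. Test compounds had been added to paddy water covering soil by 3 cm at the 2-leaf stage.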

[17] = tested on: duck salad (Heteranthera limosa); experiment: as above; conditions: 250 g ai/ha, scale 0 to 100 (0 no effect, 100 complete control), 13 to 15 d
Method in brief: as §2

rice (Oryza sativa) = experiment: as above; conditions: 250 g ai/ha, scale 0 to 100 (0 no effect, 100 complete control), 13 to 15 d
Method in brief: as §2

[18] = tested on: sedge umbrella (small-flower umbrella sedge, Cyperus difformis); experiment: as above; conditions: 250 g ai/ha, scale 0 to 100 (0 no effect, 100 complete control), 13 to 15 d
Method in brief: as §2

[19] = Test C, 31 g ai/ha, 0 is no effect, 100 is complete control
[20] = Test C, postemergence, 125 g ai/ha

Structure (SMILES): CON=C(c1cc(C)cc(Cl)c1)c1c(O)c(C)nn(C)c1=O [Compound 174]
- Ryegrass, Italian plant response rating (0 to 100 scale) ([1]; 125 g ai/ha): 90
- Ryegrass, Italian plant response rating (0 to 100 scale) [1, 19]: 80
- Barnyardgrass plant response rating (0 to 100 scale) ([2]; 125 g ai/ha): 90
- Barnyardgrass plant response rating (0 to 100 scale) [2, 19]: 70
- Foxtail, Giant plant response rating (0 to 100 scale) ([3]; 125 g ai/ha): 90
- Foxtail, Giant plant response rating (0 to 100 scale) [3, 19]: 70
- Kochia plant response rating (0 to 100 scale) (kochia (Bassia scoparia) [4]; 125 g ai/ha): 80
- Kochia plant response rating (0 to 100 scale) (kochia (Bassia scoparia) [4]; [19]): 20
- Pigweed plant response rating (0 to 100 scale) ([5]; 125 g ai/ha): 70
- Pigweed plant response rating (0 to 100 scale) [5, 19]: 20
- Ragweed plant response rating (0 to 100 scale) ([6]; 125 g ai/ha): 90
- Ragweed plant response rating (0 to 100 scale) [6, 19]: 60
- Ryegrass, Italian plant response rating (0 to 100 scale) ([7]; Postemergence, 31 g ai/ha): 60
- Ryegrass, Italian plant response rating (0 to 100 scale) [7, 20]: 100
- Barnyardgrass plant response rating (0 to 100 scale) ([8]; Postemergence, 31 g ai/ha): 60
- Barnyardgrass plant response rating (0 to 100 scale) [8, 20]: 90
- Blackgrass plant response rating (0 to 100 scale) ([9]; Postemergence, 31 g ai/ha): 30
- Blackgrass plant response rating (0 to 100 scale) [9, 20]: 40
- Corn plant response rating (0 to 100 scale) (corn (Zea mays); Postemergence, 31 g ai/ha): 10
- Corn plant response rating (0 to 100 scale) (corn (Zea mays); [20]): 20
- Foxtail, Giant plant response rating (0 to 100 scale) ([10]; Postemergence, 31 g ai/ha): 50
- Foxtail, Giant plant response rating (0 to 100 scale) [10, 20]: 90
- Galium plant response rating (0 to 100 scale) ([11]; Postemergence, 31 g ai/ha): 100
- Galium plant response rating (0 to 100 scale) [11, 20]: 100
- Kochia plant response rating (0 to 100 scale) (kochia (Bassia scoparia) [12]; Postemergence, 31 g ai/ha): 70
- Kochia plant response rating (0 to 100 scale) (kochia (Bassia scoparia) [12]; [20]): 90
- Pigweed plant response rating (0 to 100 scale) ([13]; Postemergence, 31 g ai/ha): 60
- Pigweed plant response rating (0 to 100 scale) [13, 20]: 80
- Ragweed plant response rating (0 to 100 scale) ([14]; Postemergence, 31 g ai/ha): 80
- Ragweed plant response rating (0 to 100 scale) [14, 20]: 90
- Wheat plant response rating (0 to 100 scale) ([15]; Postemergence, 31 g ai/ha): 0
- Wheat plant response rating (0 to 100 scale) [15, 20]: 0
- Plant response rating, Barnyardgrass (Flood) [16]: 0
- Plant response rating, Ducksalad (Flood) [17]: 0
- Plant response rating, Rice (Flood) (rice (Oryza sativa)): 0
- Plant response rating, Sedge, Umbrella (Flood) [18]: 0
